For data set [1], the system named is TNF α production by U937 cells. Kind of data set: Test on macrophage activity inhibition (antagonist test): LPS antagonistic activity on TNFα production by U937 cells. It is filed as cell-based. The settings on record: in the presence of 10 ng/ml of LPS, human monocytic U937 cells, 6 hours, TNFα by ELISA, concentration suppressing TNFα to 50% of standard production amount, read-out: IC50(nM), LPS antagonistic activities of the compounds on TNF α production by U937 cells. The method, then:
Test on macrophage activity inhibition (antagonist test).
TNFα is produced in vitro using human monocytic cell strain U937. The production amount of TNFα is determined by ELISA KIT of Genzyme Corporation.
Evaluation is carried out in accordance with the method of Daniel-Issakani, et al. (Journal of Biological Chemistry, 264, 20240-20247 (1989)).
By 10 ng/ml of LPS (lipopolysaccharide), about 1 ng of TNFα is produced per 10^5 cells of U937 during 6 hours (designated as a standard production amount: 100%).
In the presence of 10 ng/ml of LPS, the concentration of each of the compounds obtained in the Examples at which the production amount of TNFα is suppressed to 50% of the standard production amount is determined and it is expressed as ED50%.
For orientation: In an ELISA, binding on a coated surface is turned into a signal by an enzyme label.

Where two headings read alike, the source gives them in different places.

One may read the IC50 as the concentration that gives 50% inhibition. With `CCCCCCCCCCCCCC(=O)O[C@H](CCCCCCCCCCC)CCO[C@H]1[C@H](OP(=O)(O)O)[C@@H](CO)OC(OC[C@H]2O[C@H](C(=O)O)[C@H](NC(=O)C[C@H](O)CCCCCCCCCCC)[C@@H](OCC[C@H](O)CCCCCCCCCCC)[C@@H]2O)[C@@H]1NC(C)=O` (stereo partly drawn) [Example 1, 2,6-Anhydro-7-O-[2-acetylamino-2-deoxy-4-O-phosphono-3-O-{(R)-3-tetradecanoyloxytetradecyl}-D-glucopyranosyl]-3-{(R)-3-hydroxytetradecanoylamino}-4-O-{(R)-3-hydroxytetradecyl}-3-deoxy-D-glycero-D-ido-heptonic Acid], in data set [1] (U-937), the IC50 was found to be 11 nM. On to `CCCCCCCCCCCCCC(=O)O[C@H](CCCCCCCCCCC)CCO[C@@H]1[C@@H](NC(C)=O)[C@H](OC[C@H]2O[C@H](C(=O)O)[C@H](NC(=O)C[C@H](O)CCCCCCCCCCC)[C@@H](OCC[C@H](O)CCCCCCCCCCC)[C@@H]2O)O[C@H](COC)[C@H]1OP(=O)(O)O` [Example 2, 2,6-Anhydro-7-O-[2-acetylamino-2-deoxy-6-O-methyl-4-O-phosphono-3-O-{(R)-3-tetradecanoyloxytetradecyl}-β-D-glucopyranosyl]-3-{(R)-3-hydroxytetradecanoylamino}-4-O-{(R)-3-hydroxytetradecyl}-3-deoxy-D-glycero-D-ido-heptonic Acid], for which the IC50 in data set [1] (U-937) was found to be 0.61 nM. Same read-out and setting: the value for `CCCCCCCCCCCCCC(=O)O[C@H](CCCCCCCCCCC)CCO[C@@H]1[C@@H](NC(C)=O)[C@H](OC[C@H]2O[C@H](C(=O)O)[C@H](NC(=O)C[C@H](O)CCCCCCCCCCC)[C@@H](OCC[C@H](O)CCCCCCCCCCC)[C@@H]2O)O[C@H](CF)[C@H]1OP(=O)(O)O` [Example 3, 2,6-Anhydro-7-O-[2-acetylamino-2,6-dideoxy-6-fluoro-4-O-phosphono-3-O-{(R)-3-tetradecanoyloxytetradecyl}-β-D-glucopyranosyl]-3-{(R)-3-hydroxytetradecanoylamino}-4-O-{(R)-3-hydroxytetradecyl}-3-deoxy-D-glycero-D-ido-heptonic Acid] was 1.2 nM. As a reminder, the melting point is the temperature of the solid-liquid transition. With `CCCCCCCCCCCCO[C@H](CCCCCCCCCCC)CCO[C@@H]1[C@@H](NC(C)=O)[C@H](OC[C@H]2O[C@H](C(=O)O)[C@H](NC(=O)C[C@H](O)CCCCCCCCCCC)[C@@H](OCC[C@H](O)CCCCCCCCCCC)[C@@H]2O)O[C@H](CO)[C@H]1OP(=O)(O)O` [Example 4, 2,6-Anhydro-7-O-[2-acetylamino-2-deoxy-3-O-{(R)-3-dodecyloxytetradecyl}-4-O-phosphono-β-D-glucopyranosyl]-3-{(R)-3-hydroxytetradecanoylamino}-4-O-{(R)-3-hydroxytetradecyl}-3-deoxy-D-glycero-D-ido-heptonic Acid], the melting point fell in the range of 179 to 181 °C. For the same compound, in data set [1] (U-937), the IC50 turned out to be 11 nM. `CCCCCCCCCCCCO[C@H](CCCCCCCCCCC)CCO[C@@H]1[C@@H](NC(C)=O)[C@H](OC[C@H]2O[C@H](C(=O)O)[C@H](NC(=O)C[C@H](O)CCCCCCCCCCC)[C@@H](OCC[C@H](O)CCCCCCCCCCC)[C@@H]2O)O[C@H](COC)[C@H]1OP(=O)(O)O` [Example 5, 2,6-Anhydro-7-O-[2-acetylamino-2-deoxy-3-O-{(R)-3-dodecyloxytetradecyl}-6-O-methyl-4-O-phosphono-β-D-glucopyranosyl]-3-{(R)-hydroxytetradecanoylamino}-4-O-{(R)-3-hydroxytetradecyl}-3-deoxy-D-glycero-D-ido-heptonic Acid]: in data set [1], the IC50 is 6.4 nM. Same read-out and setting: the figure for `CCCCCCCCCCCCO[C@H](CCCCCCCCCCC)CCO[C@@H]1[C@@H](NC(C)=O)[C@H](OC[C@H]2O[C@H](C(=O)O)[C@H](NC(=O)C[C@H](O)CCCCCCCCCCC)[C@@H](OCC[C@H](O)CCCCCCCCCCC)[C@@H]2O)O[C@H](CF)[C@H]1OP(=O)(O)O` [Example 6] is 10 nM.

The values are drawn from US6511965B2, “Ether type lipid A 1-carboxylic acid analogs” (Sankyo Company, Limited, priority 1999, dated 2003).
